In patent US20150315188A1, “COMPOUNDS AND METHODS FOR TREATMENT OF HYPERTENSION” (MEDIVATION TECHNOLOGIES, INC., priority 2012, published 2015):

How the values were obtained:
[1] = molecular target: T1, Human adrenergic α2B receptor (Homo sapiens, UniProt P18089); assay: Radioligand binding, adrenergic α2B (Protocol Group B); set-up: purchased Milipore (Millipore); settings: for Percentage inhibition of ligand binding, Adrenergic α2B, 0.1 nM: 0.0001 µM; for Percentage inhibition of ligand binding, Adrenergic α2B (10 nM) / inhibition at 0.01 µM: 10 nM compound; for Percentage inhibition of ligand binding, Adrenergic α2B (10 nM): 0.01 µM; for inhibition at 0.03 µM / Percentage inhibition of ligand binding, Adrenergic α2B (30 nM): 30 nM compound; for inhibition at 0.03 µM: read-out: Percentage inhibition of ligand binding, Adrenergic α2B (30 nM); for inhibition at 0.1 µM: read-out: Percentage inhibition of ligand binding, Adrenergic α2B (0.1 μM); for Ki: estimated Ki, read-out: Ki α2B; for inhibition at 0.01 µM: read-out: Percentage inhibition of ligand binding, Adrenergic α2B (10 nM)
T1 sequence (P18089 1-450): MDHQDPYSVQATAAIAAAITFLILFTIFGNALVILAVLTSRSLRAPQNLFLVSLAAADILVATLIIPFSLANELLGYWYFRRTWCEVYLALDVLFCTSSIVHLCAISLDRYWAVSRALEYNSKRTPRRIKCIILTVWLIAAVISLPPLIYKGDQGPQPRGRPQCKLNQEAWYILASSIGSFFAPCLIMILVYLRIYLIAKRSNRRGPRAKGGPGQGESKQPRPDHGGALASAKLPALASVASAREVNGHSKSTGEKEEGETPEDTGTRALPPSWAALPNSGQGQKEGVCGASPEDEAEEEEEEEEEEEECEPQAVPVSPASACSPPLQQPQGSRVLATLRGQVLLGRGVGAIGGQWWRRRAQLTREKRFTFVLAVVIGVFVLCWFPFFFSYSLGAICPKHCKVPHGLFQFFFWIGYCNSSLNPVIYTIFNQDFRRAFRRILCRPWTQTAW
Summary of the method: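 Compounds at various concentrations in 1% DMSO were tested on recombinant membranes in Tris-HCl pH 7.4 buffer containing MgCl2, CaCl2 and 0.2% BSA.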

[2] = molecular target: T2, Human adrenergic α1B receptor (Homo sapiens, UniProt P35368); assay: Radioligand binding, adrenergic α1B (Protocol Group B); set-up: purchased Milipore (Millipore); settings: for inhibition at 0.1 µM / Percentage inhibition of ligand binding, Adrenergic α1B (0.1 μM): 0.1 μM compound; for inhibition at 0.1 µM / inhibition at 0.3 µM / Ki / Percentage inhibition of ligand binding, Adrenergic α1B (0.1 μM) / Percentage inhibition of ligand binding, Adrenergic α1B (0.3 μM): Protocol Group B; for inhibition at 0.1 µM: read-out: Percentage inhibition of ligand binding, Adrenergic α1B (0.1 μM); for inhibition at 0.3 µM / Percentage inhibition of ligand binding, Adrenergic α1B (0.3 μM): 0.3 μM compound; for inhibition at 0.3 µM: read-out: Percentage inhibition of ligand binding, Adrenergic α1B (0.3 μM); for Ki: estimated Ki; for inhibition at 0.0032 µM: 3.2 nM compound, read-out: Percentage inhibition of ligand binding, Adrenergic α1B, 3.2 nM; for inhibition at 0.32 µM: 0.32 μM compound, read-out: Percentage inhibition of ligand binding, Adrenergic α1B, 0.32 μM; for inhibition at 1 µM: 1 μM compound, read-out: Percentage inhibition of ligand binding, Adrenergic α1B, 1 μM
T2 sequence (P35368 1-520): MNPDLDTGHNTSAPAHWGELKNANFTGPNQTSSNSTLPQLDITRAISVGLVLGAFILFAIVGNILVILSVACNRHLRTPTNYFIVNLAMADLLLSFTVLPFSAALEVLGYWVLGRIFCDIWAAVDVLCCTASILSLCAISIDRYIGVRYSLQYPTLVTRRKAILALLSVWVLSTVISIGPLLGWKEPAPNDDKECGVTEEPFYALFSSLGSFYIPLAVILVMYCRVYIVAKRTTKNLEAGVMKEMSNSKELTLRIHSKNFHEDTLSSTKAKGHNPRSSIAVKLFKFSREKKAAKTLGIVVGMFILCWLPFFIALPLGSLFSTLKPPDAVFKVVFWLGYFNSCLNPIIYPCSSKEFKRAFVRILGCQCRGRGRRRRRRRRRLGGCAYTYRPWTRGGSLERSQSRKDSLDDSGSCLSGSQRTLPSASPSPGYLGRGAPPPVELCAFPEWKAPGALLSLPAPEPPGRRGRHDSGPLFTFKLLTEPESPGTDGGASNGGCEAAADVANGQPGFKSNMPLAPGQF
Summary of the method: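 Values are percent inhibition of specific [3H]prazosin (0.3 nM) binding or estimated Ki, from filtration counting. Human α1B recombinant membranes, Tris-HCl pH 7.4 buffer with MgCl2 and EDTA, 60 min at 25 °C, 1% DMSO vehicle; 10 μM prazosin defined nonspecific binding.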

[3] = molecular target: T2, Human adrenergic α1B receptor; assay: β-Arrestin GPCR functional assay, adrenergic α1B (Protocol B); type: cell-based; settings: for Percentage inhibition, Adrenergic α1B / inhibition at 0.3 µM / inhibition at 0.1 µM: nor-epinephrine at EC80 (50 nM); for inhibition at 0.3 µM / inhibition at 0.1 µM: read-out: Percentage inhibition, Adrenergic α1B; for IC50: β-arrestin, antagonist vs nor-epinephrine EC80
Summary of the method: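 Antagonist mode: norepinephrine at its EC80 of 50 nM was added for 90 min at 37°C after a 30-min compound pretreatment of CHO cells expressing the human α1B receptor, with DMSO at 1% final. β-Arrestin recruitment read by chemiluminescence (60 min, RT, dark) and expressed as percent inhibition or IC50.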

[4] = molecular target: T1, Human adrenergic α2B receptor; assay: β-Arrestin GPCR functional assay, adrenergic α2B (Protocol B); type: cell-based; settings: for IC50: β-arrestin, antagonist vs nor-epinephrine EC80, read-out: IC50 Adrenergic α2B
Summary of the method: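 CHO cells overexpressing human α2B (PathHunter β-arrestin), 12,000 per well, 24 h at 37° C; compounds in 1% DMSO 30 min, then 50 nM norepinephrine (EC80) 90 min at 37° C.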

[5] = 0.1 nM compound, concentration series
[6] = 0.1 μM compound, Protocol Group B
[7] = 10 nM compound, nor-epinephrine at EC80 (50 nM), read-out: Percentage inhibition, Adrenergic α2B
[8] = 30 nM compound, nor-epinephrine at EC80 (50 nM)
[9] = 0.1 μM compound, nor-epinephrine at EC80 (50 nM), read-out: Percentage inhibition, Adrenergic α2B

Compound	Percentage inhibition of ligand binding, Adrenergic α2B, 0.1 nM [1, 5] [%]	Percentage inhibition of ligand binding, Adrenergic α2B (10 nM) ([1]; Protocol Group B) [%]	inhibition at 0.03 µM ([1]; Protocol Group B) [%]	inhibition at 0.1 µM [1, 6] [%]	Ki ([1]; Protocol Group B) [nM]	inhibition at 0.1 µM [2] [%]	inhibition at 0.3 µM [2] [%]	Ki [2] [nM]	inhibition at 0.3 µM ([3]; 0.3 μM compound) [%]	IC50 [3] [nM]	inhibition at 0.01 µM [4, 7] [%]	Percentage inhibition, Adrenergic α2B [4, 8] [%]	IC50 [4] [nM]	inhibition at 0.01 µM ([1]; Protocol Group B) [%]	inhibition at 0.0032 µM ([2]; concentration series) [%]	inhibition at 0.32 µM ([2]; concentration series) [%]	inhibition at 1 µM ([2]; concentration series) [%]	inhibition at 0.1 µM ([3]; 0.1 μM compound) [%]	inhibition at 0.1 µM [4, 9] [%]	Percentage inhibition of ligand binding, Adrenergic α1B (0.1 μM) [2] [%]	also measured
Cc1ccc2c(c1)c1c(n2CC(O)c2ccncc2F)CCN2CCCC12 (single isomer, unassigned) [14a]	−28	60	81	89	6.5	70	87	18.2	76	99	13	9	124	–	–	–	–	–	–	–	Percentage inhibition, Adrenergic α1B ([3]; 0.1 μM compound): 49%; Percentage inhibition, Adrenergic α2B ([4]; 0.1 μM compound, nor-epinephrine at EC80 (50 nM)): 41%
OC(Cn1c2c(c3cc(F)ccc31)C1CCCN1CC2)c1ccncc1 (single isomer, unassigned) [18b]	–	–	97	100	1.03	45	63	65.8	46	357	37	–	13	94	14	74	87	19	103	–	inhibition at 30 pM ([1]; 0.03 nM compound, concentration series, read-out: Percentage inhibition of ligand binding, Adrenergic α2B, 0.03 nM): 19%; inhibition at 0.0001 µM ([1]; 0.1 nM compound, concentration series, read-out: Percentage inhibition of ligand binding, Adrenergic α2B, 0.1 nM): 6%; inhibition at 0.00032 µM ([1]; 0.32 nM compound, concentration series, read-out: Percentage inhibition of ligand binding, Adrenergic α2B, 0.32 nM): 14%; inhibition at 0.001 µM ([1]; 1 nM compound, concentration series, read-out: Percentage inhibition of ligand binding, Adrenergic α2B, 1 nM): 29%; inhibition at 0.0032 µM ([1]; 3.2 nM compound, concentration series, read-out: Percentage inhibition of ligand binding, Adrenergic α2B, 3.2 nM): 78%; inhibition at 0.01 µM ([2]; 10 nM compound, concentration series, read-out: Percentage inhibition of ligand binding, Adrenergic α1B, 10 nM): 17%; inhibition at 0.03 µM ([2]; 0.03 μM compound, concentration series, read-out: Percentage inhibition of ligand binding, Adrenergic α1B, 0.03 μM): 14%; inhibition at 3.2 µM ([2]; 3.2 μM compound, concentration series, read-out: Percentage inhibition of ligand binding, Adrenergic α1B, 3.2 μM): 96%; inhibition at 10 µM ([2]; 10 μM compound, concentration series, read-out: Percentage inhibition of ligand binding, Adrenergic α1B, 10 μM): 99%; inhibition at 0.03 µM ([4]; 30 nM compound, nor-epinephrine at EC80 (50 nM), read-out: Percentage inhibition, Adrenergic α2B): 94%
Cc1cc(C)c2c(c1)c1c(n2CC(C)(O)c2ccncc2)CCN2CCCC12 (single isomer, unassigned) [19a]	8	–	99	100	1	–	93	7.5	–	107	–	71	18	94	7	96	95	45	101	82	inhibition at 32 pM ([1]; 0.032 nM compound, concentration series, read-out: Percentage inhibition of ligand binding, Adrenergic α2B, 0.032 nM): 3%; Percentage inhibition of ligand binding, Adrenergic α2B, 0.32 nM ([1]; 0.32 nM compound, concentration series, 0.00032 µM): 9%; Percentage inhibition of ligand binding, Adrenergic α2B, 1 nM ([1]; 1 nM compound, concentration series, 0.001 µM): 18%; Percentage inhibition of ligand binding, Adrenergic α2B, 3.2 nM ([1]; 3.2 nM compound, concentration series, 0.0032 µM): 64%; inhibition at 0.032 µM ([1]; 0.032 μM compound, concentration series, read-out: Percentage inhibition of ligand binding, Adrenergic α2B, 0.032 μM): 99%; inhibition at 0.00032 µM ([2]; 0.32 nM compound, concentration series, read-out: Percentage inhibition of ligand binding, Adrenergic α1B, 0.32 nM): 13%; inhibition at 0.001 µM ([2]; 1 nM compound, concentration series, read-out: Percentage inhibition of ligand binding, Adrenergic α1B, 1 nM): 2%; Percentage inhibition of ligand binding, Adrenergic α1B, 10 nM ([2]; 10 nM compound, concentration series, 0.01 µM): 24%; Percentage inhibition of ligand binding, Adrenergic α1B, 0.032 μM ([2]; 0.032 μM compound, concentration series, 0.032 µM): 61%; Percentage inhibition, Adrenergic α1B ([3]; 0.3 μM compound): 74%; Percentage inhibition, Adrenergic α2B ([4]; 10 nM compound, nor-epinephrine at EC80 (50 nM)): 33%
CC(O)(Cn1c2c(c3cc(F)ccc31)C1CCCN1CC2)c1ccncc1 (single isomer, unassigned) [31b]	–	68	–	–	2.6	–	–	134	–	782	–	–	66	–	–	–	–	–	–	30	Percentage inhibition of ligand binding, Adrenergic α2B (30 nM) ([1]; Protocol Group B): 90%; Percentage inhibition of ligand binding, Adrenergic α2B (0.1 μM) ([1]; 0.1 μM compound, Protocol Group B, 0.1 µM): 97%; Percentage inhibition of ligand binding, Adrenergic α1B (0.3 μM) [2]: 50%
OC(Cn1c2c(c3cc(Cl)cc(F)c31)C1CCCN1CC2)c1ccncc1 (single isomer, unassigned) [135b]	–	84	–	–	0.69	–	–	–	–	102	–	–	9.27	–	–	–	–	–	–	64	Percentage inhibition of ligand binding, Adrenergic α2B (30 nM) ([1]; Protocol Group B, 0.03 µM): 83%; Percentage inhibition of ligand binding, Adrenergic α1B (0.3 μM) [2]: 81%
